pKd: −log10 of the molar value.
Key:
HRP [1] = molecular target: T1, HRP (Armoracia rusticana, UniProt P00433); experiment: A2E degradation by HRP/H2O2, absorbance kinetics at 340 nm; assay type: biochemical
T1 sequence (P00433 31-338): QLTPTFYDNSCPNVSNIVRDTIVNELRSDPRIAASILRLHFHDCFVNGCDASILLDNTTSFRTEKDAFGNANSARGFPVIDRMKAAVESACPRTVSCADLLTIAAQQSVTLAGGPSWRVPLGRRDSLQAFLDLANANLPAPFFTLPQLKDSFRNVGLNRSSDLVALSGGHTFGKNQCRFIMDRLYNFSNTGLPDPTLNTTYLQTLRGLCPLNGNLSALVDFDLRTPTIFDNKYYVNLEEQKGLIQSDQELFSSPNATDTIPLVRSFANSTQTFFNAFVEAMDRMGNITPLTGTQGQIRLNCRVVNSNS
Description: Horseradish peroxidase (HRP) is reported to cleave the bis-retinoid A2E. Thus, the ability of SapB to protect A2E from oxidative transformations by HRP was investigated.
In classic peroxidases, it is believed that reaction with hydrogen peroxide gives rise to two oxidizing equivalents (i.e. a porphyrin radical-cation and an Fe(IV)-oxo (ferryl) species) due to exposure of the prosthetic heme group to the bulk solution. […] Having established the presence of two different binding sites on SapB (one for A2E and one for CoQ10), the ability of SapB to protect A2E in the presence of CoQ10 was tested.
(§1) Conventional ultraviolet visible spectroscopy was performed on a Varian Cary 50 Bio spectrophotometer from Agilent Technologies. The stock solutions of various reagents were prepared as follow: HRP in DI water, A2E in DMSO, SapB in 50 mM phosphate buffer, pH 5.5, CoQ10 in THF (tetrahydrofurane) and 3% H2O2 solution diluted in DI water from an initial stock at 30%. The 340 nm kinetic experiments were monitored every 5 minutes for a total of 400 min following the sequential addition of all reagents as indicated in FIG. 4. The HRP solution of FIG. 5 was prepared in 20 mM phosphate buffer, 1% tween, pH 5.5, 25° C. All concentrations given in the figure caption are final concentrations following mixing of the reagents. The spectrophotometric data were further analyzed with OriginLab software version 8.

HRP [2] = molecular target: T1, HRP; experiment: Formation of verdoheme (P-670) from HRP Compound III, absorbance at 670 nm; assay type: biochemical; conditions: 12 μM A2E, alone or pre-complexed with SapB; 10 μM HRP, 100 μM H2O2
Protocol: Here, and in light of the kinetic results of FIG. 4, we followed the absorbance change at 670 nm to test the hypothesis of whether A2E may be a suitable substrate for the HRP/H2O2 system.
The experiments were then repeated in the presence of A2E and SapB to examine their effect on P-670 formation.
as §1

[3] = Blue-light photo-degradation of A2E; assay type: physicochemical; conditions: bound to SapB (2 sapB:1 A2E) versus free; 30 min, pH 5.5
Description: We screened A2E photostability to blue light, whether in its free form or complexed to SapB (2 sapB:1 A2E) (see supplementary materials for details) with and without 1% DMSO (a known facilitator of blue induced photobleaching). […] The fact that SapB might play a role in mitigating photo-bleaching and providing a source of subsequent fluorescence is an interesting possibility, particularly in light of recent studies by Yamamoto et al. showing that SapB could regulate CoQ10 movement/levels within HepG2 cells.
In order to further examine the protective effects of sapB towards A2E in terms of photooxidation, additional ultraviolet spectroscopy was performed on a Varian Cary 50B Spectrophotomer. The stock solutions were prepared as follows: SapB in 50 mM phosphate buffer, pH 5.5 and A2E in 100% methanol or 100% DMSO. The samples were exposed to blue light in five-minute increments and monitored after each exposure for a total of 30 min. The data was further analyzed with OriginLab software version 8. The final product was examined via mass spectroscopy to identify products as a result of blue light exposure. Evidence for photooxidized species are clearly indicated.

[4] = molecular target: T2, retinoid isomerohydrolase (RPE65 isomerohydrolase) (Homo sapiens, UniProt Q16518); conditions: non-palmitoylated, soluble, cytoplasmic RPE65; read-out: KD, direct binding to RPE65; cited from earlier work
T2 sequence (Q16518 1-533): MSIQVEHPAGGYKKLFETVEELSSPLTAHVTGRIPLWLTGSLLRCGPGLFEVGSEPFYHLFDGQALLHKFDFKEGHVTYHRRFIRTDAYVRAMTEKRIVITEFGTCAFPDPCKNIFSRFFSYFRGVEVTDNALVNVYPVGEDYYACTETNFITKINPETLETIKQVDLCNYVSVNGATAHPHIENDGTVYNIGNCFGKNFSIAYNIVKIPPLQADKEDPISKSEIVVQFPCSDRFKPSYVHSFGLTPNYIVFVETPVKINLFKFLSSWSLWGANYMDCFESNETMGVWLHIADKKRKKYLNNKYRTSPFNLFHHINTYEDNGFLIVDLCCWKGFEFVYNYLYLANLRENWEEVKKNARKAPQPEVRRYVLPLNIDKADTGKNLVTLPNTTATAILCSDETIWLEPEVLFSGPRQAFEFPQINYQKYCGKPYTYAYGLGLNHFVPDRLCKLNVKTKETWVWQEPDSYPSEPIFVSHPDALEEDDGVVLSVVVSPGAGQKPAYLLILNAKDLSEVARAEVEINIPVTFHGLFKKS

[5] = test system: retinoic acid receptor (RAR); conditions: cited from earlier work
arylsulfatase A (ASA) = molecular target: T3, arylsulfatase A (ASA) (Homo sapiens, UniProt P15289); conditions: at a set time-point; cited from earlier work
T3 sequence (P15289 19-507): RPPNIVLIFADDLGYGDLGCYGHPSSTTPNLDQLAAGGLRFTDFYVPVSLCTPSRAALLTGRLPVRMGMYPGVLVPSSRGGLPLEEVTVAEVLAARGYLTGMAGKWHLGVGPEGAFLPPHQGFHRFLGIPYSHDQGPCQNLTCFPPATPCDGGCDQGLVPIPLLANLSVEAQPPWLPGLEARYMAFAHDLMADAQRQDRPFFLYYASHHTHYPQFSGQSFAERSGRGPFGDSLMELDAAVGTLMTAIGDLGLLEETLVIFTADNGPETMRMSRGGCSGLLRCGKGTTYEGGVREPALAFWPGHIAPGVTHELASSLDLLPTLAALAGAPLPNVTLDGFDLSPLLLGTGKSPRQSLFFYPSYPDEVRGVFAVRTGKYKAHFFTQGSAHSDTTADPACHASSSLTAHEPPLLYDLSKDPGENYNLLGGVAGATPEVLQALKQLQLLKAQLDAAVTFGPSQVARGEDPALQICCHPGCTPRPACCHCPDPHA

absorbance of A2E at 340 nm after H2O2 added to A2E containing HRP (HRP [1]; free A2E): decrease in the absorbance value
amount of verdoheme (P-670) formation (HRP [2]): significant reduction
A2E degradation over time under blue light (decline in slopes) [3]: significantly reduced
Compound: CC(C=CC1=C(C)CCCC1(C)C)=CC=CC(C)=Cc1cc(C=CC=C(C)C=CC2=C(C)CCCC2(C)C)cc[n+]1CCO [A2E, N-retinylidene-N-retinylethanolamine]
absorbance change at 340 nm, A2E pre-complexed with SapB (HRP [1]; 2:1 SapB:A2E ratio, + HRP + H2O2): very similar to that of a control mixture of HRP and H2O2
absorbance, sequences (SapB+A2E)complex+CoQ10+HRP+H2O2 or (SapB+CoQ10)complex+A2E+HRP+H2O2 (HRP [1]; SapB and CoQ10 present): absorbance values similar to the sequence (SapB+A2E)complex+HRP+H2O2
damage to A2E, sequence (SapB+HRP)complex+A2E+H2O2 (HRP [1]; SapB pre-complexed with HRP): partial damage
pKd [4]: 6.60
ligand activity at RAR [5]: endogenous ligand
interference with ASA specific activity (arylsulfatase A (ASA)): does not interfere

From patent US10813981B2, “Saposin B binds the lipofuscin bisretinoid A2E and prevents its enzymatic and photo degradation” (Syracuse University, priority 2017, dated 2020)
